Source: ChEMBL document CHEMBL1201862, “PubChem BioAssay data set” (2004)
Calls of active or inactive are those of the source. For most assays here, no stated cut-off is given here; in the data, actives have a measured EC50 and inactives only a lower limit.

Tests used:
Protein RecA = molecular target: T1, Protein RecA (Mycobacterium tuberculosis, UniProt P9WHJ3); assay: Fluorescence Cell-Free Homogeneous Dose Retest to Identify Inhibitors of RecA-Intein Splicing Activity. [Related pubchem assays (depositor defined):AID2097, AID2223, AID489010, AID492950]; type: functional
T1 sequence (P9WHJ3 whole entry): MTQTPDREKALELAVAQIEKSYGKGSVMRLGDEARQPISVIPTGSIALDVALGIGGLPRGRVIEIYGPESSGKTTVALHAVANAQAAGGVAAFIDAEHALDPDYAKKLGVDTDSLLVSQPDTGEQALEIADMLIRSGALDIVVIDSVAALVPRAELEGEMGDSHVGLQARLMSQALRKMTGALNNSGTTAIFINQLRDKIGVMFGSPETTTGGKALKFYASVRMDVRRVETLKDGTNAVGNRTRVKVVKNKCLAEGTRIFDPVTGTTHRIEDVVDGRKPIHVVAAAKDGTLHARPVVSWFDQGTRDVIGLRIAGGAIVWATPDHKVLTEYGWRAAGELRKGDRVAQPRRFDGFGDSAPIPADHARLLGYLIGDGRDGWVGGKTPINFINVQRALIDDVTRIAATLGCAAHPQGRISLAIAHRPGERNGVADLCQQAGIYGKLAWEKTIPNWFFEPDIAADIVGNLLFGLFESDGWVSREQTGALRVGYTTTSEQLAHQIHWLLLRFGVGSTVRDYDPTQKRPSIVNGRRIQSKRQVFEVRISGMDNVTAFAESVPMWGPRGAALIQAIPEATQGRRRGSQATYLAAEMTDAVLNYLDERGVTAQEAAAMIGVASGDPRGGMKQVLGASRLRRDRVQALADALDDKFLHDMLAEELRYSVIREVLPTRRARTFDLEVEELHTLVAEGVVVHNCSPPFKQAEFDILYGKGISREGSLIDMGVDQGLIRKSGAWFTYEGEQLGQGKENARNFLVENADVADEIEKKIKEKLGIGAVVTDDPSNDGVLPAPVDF

[1] = molecular target: T2, Replicative DNA helicase DnaB (Mycobacterium tuberculosis, UniProt P9WMR3); assay: DnaB intein splicing inhibitors, dose response, biochemical, cell-free fluorescence (AID 449749); type: functional
T2 sequence (P9WMR3 whole entry): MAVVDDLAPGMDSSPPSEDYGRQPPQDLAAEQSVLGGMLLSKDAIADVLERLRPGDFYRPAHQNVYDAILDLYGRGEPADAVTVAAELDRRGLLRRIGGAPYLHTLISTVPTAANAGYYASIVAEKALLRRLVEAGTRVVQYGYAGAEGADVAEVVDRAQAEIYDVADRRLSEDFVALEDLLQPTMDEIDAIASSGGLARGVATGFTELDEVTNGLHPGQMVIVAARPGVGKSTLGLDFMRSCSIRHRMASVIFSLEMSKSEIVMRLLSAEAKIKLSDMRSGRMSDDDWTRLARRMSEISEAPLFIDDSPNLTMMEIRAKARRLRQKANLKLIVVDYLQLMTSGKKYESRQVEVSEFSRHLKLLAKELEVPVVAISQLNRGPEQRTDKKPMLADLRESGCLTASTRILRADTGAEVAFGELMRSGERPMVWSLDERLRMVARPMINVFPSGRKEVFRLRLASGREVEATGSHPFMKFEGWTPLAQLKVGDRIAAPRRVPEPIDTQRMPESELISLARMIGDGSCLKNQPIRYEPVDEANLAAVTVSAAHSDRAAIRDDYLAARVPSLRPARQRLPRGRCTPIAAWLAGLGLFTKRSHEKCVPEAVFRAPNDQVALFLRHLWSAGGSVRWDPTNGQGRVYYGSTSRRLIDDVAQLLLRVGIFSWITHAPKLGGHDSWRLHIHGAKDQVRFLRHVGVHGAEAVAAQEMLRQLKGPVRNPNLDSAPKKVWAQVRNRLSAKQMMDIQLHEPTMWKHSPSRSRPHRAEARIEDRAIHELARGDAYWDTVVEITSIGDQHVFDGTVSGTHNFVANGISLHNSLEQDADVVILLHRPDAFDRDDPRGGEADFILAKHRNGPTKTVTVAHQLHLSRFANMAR

H9c2 = assay: cells; type: functional, cell-based; conditions: Rattus norvegicus, H9c2, Myocardium;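 further: confirmatory concentration-response retest of ultra-high-throughput screening hits for modulation of myocardial damage; cell death induced by hydrogen peroxide oxidative stress; compound pretreatment for 60 min then peroxide exposure for 2 h; potency is for protecting the cells against peroxide damage rather than for killing them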
[2] = molecular target: T3, Heat shock factor protein 1 (Mus musculus, UniProt P38532); assay: enhancement of HSF1-driven luciferase signal – cell-based, NIH3T3, luminescence, dose retest, confirmation (AID 435004); type: functional;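 further: stress induced by proteasome inhibitor MG132 added 30 min after compound; luciferase reporter driven by HSF1 response element in NIH3T3 cells; actives raise luminescence as potentiators of the MG132 stress response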
T3 sequence (P38532 whole entry): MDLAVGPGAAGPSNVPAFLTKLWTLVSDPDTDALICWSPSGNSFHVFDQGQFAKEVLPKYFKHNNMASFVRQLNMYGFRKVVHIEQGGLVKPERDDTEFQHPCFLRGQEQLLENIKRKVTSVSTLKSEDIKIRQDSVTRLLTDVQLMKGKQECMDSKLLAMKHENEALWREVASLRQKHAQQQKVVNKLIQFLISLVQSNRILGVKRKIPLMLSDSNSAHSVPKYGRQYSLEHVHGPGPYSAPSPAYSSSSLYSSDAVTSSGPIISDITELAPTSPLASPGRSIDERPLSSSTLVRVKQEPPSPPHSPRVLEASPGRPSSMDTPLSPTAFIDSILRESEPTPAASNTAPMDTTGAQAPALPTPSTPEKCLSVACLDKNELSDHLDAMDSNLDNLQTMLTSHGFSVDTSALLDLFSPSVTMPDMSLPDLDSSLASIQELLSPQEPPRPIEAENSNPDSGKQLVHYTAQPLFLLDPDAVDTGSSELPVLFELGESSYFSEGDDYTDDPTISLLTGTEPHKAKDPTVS

Streptococcus = assay: GAS UMAA2166 growth inhibition – luminescence, BacTiterGlo, counter-screen for streptokinase expression inhibitor project, dose response (AID 1915); type: functional, organism-based;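 further: potency for reduction of bacterial viability or growth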
[3] = test system: Streptococcus sp. 'group A'; assay: Streptococcus pyogenes SK(-)GAS viability under kanamycin – luminescence, BacTiterGlo, confirmation, counter-screen for streptokinase expression inhibitor project, dose response (AID 1900); type: functional, organism-based
Streptokinase A = molecular target: T4, Streptokinase A (Streptococcus pyogenes serotype M1, UniProt P10520); assay: viability-normalized secreted streptokinase activity reduction – plasminogen activation absorbance, OD405, dose response (AID 1914); type: functional, Streptococcus pyogenes M1 GAS;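 further: secreted streptokinase activity via plasminogen activation per viability signal from cell pellet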
T4 sequence (P10520 whole entry): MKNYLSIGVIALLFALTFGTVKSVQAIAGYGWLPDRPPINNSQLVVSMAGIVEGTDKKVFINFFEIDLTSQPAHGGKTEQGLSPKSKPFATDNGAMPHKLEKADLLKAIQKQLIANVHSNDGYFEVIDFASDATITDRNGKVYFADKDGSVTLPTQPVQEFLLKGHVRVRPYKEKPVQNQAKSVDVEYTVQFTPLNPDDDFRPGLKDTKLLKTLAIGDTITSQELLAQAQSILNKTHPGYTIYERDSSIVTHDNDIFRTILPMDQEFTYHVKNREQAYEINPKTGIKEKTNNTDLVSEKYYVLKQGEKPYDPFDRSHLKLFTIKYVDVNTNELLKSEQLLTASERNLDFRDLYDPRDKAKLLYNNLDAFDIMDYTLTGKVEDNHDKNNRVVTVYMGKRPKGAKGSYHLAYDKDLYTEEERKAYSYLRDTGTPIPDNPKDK

What does the source list for `COc1ccc(OC)c(C2C(C#N)=C(N)Oc3c2c(C)nn3-c2ccc(C)cc2)c1` (stereo unspecified)?
EC50 (Protein RecA): 4.91 µM (active); AC50 [1]: > 380 µM (inactive)

`CCCN(CC(=O)Nc1ccccc1C)C(=O)Cc1nnc(O)c2ccccc12` was tested. Which IC50 (H9c2) did it give?
The IC50 was > 79 µM (inactive).

`CCCc1n[nH]c2c1C1(C(=O)N(Cc3ccccc3)c3ccccc31)C(C(=O)OC)=C(N)O2` (stereo unspecified) was tested. Which EC50 [2] did it give?
The EC50 was > 260 µM (inactive).

With `N=c1c(S(=O)(=O)c2ccc(Br)cc2)cc2c(=O)n3ccccc3nc2n1C1CCCC1` as the compound, how does the EC50 [2] read?
The EC50 was > 260 µM (inactive).

`CCN(CC)S(=O)(=O)c1ccc(N2CCOCC2)c(NC(=O)c2cc(-c3ccccn3)nc3ccccc23)c1` was tested. Which IC50 (H9c2) did it give?
Its IC50 is > 79 µM (inactive).

Which EC50 [2] does the source give for `COc1cccc(NN=C2C(=O)NC(=S)NC2=O)c1` here?
The EC50 was 9.18 µM (active).

With `O=C1NCCCC2c3c(cc(Br)c(O)c3Br)OC12N1CCCCC1` (stereo unspecified) as the compound, how does the EC50 (Protein RecA) read?
The EC50 was 5.46 µM (active).

What about the AC50 [1] of the same compound?
The AC50 was 32.1 µM (active).

`O=C(CSc1nnc(-c2c[nH]c3ccccc23)o1)c1ccccc1` was tested. Which EC50 [2] did it give?
Its EC50 is > 260 µM (inactive).

How did the IC50 (H9c2) turn out when `COc1ccc(C(=O)COc2ccccc2C(N)=O)cc1` was run?
The IC50 was > 79 µM (inactive).

Which EC50 [2] does the source give for `N#Cc1cc(-c2ccccc2)cnc1Sc1ccccc1` here?
The EC50 was > 260 µM (inactive).

For `COc1ccc(/C=N/NC(=O)c2cc(-c3ccc4c(c3)OCO4)[nH]n2)cc1OC`, which IC50 (H9c2) is on record?
The IC50 was > 79 µM (inactive).

How did the EC50 [2] turn out when `CC(=O)Oc1ccc(Cn2cnc3cc4ccccc4cc32)cc1` was run?
Its EC50 is 44.4 µM (active).

How did the EC50 (Protein RecA) turn out when `COc1ccccc1CN1CCSCC1` was run?
The EC50 was 5.08 µM (active).

And the AC50 [1]?
Its AC50 is 13.2 µM (active).

For `COC(=O)c1ccc(Cn2c(C)c(C(=O)NCc3cccs3)sc2=O)o1`, which IC50 (H9c2) is on record?
The IC50 was 12.1 µM (active).

`CCc1nnc(NC(=O)C(NC(=O)c2ccccc2Cl)C(C)C)s1` (stereo unspecified) was tested. Which EC50 [2] did it give?
Its EC50 is > 260 µM (inactive).

How did the EC50 (Streptococcus) turn out when `CCCCCCCN1N=C(C)C(C(=O)c2ccccc2)C1=O` (stereo unspecified) was run?
Its EC50 is 30.9 µM (active).

What about the EC50 [3] of the same compound?
The EC50 was 2.89 µM (active).

What about the EC50 (Streptokinase A) of the same compound?
The EC50 was > 150 µM (not active).

`COc1ccc(S(=O)(=O)Nc2ccncc2)c(C)c1C` was tested. Which EC50 [2] did it give?
Its EC50 is > 260 µM (inactive).

With `COc1ccc(C2/C=C\CN(C(=O)c3ccccc3)CC(=O)N2Cc2ccc(F)cc2)cc1` (stereo unspecified) as the compound, how does the EC50 (Streptococcus) read?
The EC50 was > 150 µM (not active).

And the EC50 [3]?
The EC50 was > 150 µM (not active).

What about the EC50 (Streptokinase A) of the same compound?
The EC50 was > 150 µM (not active).

With `Cc1sc2nc(C3CC3)nc(SCC(=O)N3CCc4ccccc4C3)c2c1C` as the compound, how does the EC50 [2] read?
The EC50 was 28.6 µM (active).

For `CN(CC1CCCO1)S(=O)(=O)c1ccc(C(=O)Nc2ccccc2F)cc1` (stereo unspecified), which EC50 (Streptococcus) is on record?
The EC50 was > 150 µM (not active).

And the EC50 [3]?
Its EC50 is > 150 µM (not active).

What about the EC50 (Streptokinase A) of the same compound?
The EC50 was > 150 µM (not active).

Which IC50 (H9c2) does the source give for `COc1ccc(OC)c(Nc2nc(N)c([N+](=O)[O-])c(N3CCOCC3)n2)c1` here?
Its IC50 is 17.7 µM (active).

`CC(C)(C)OC(=O)N1CCC[C@H]1c1nnc(SCC(=O)Nc2ccc(Br)cc2)o1` was tested. Which IC50 (H9c2) did it give?
Its IC50 is > 79 µM (inactive).

What does the source list for `Fc1ccc(Nc2nc(Oc3ccccc3F)nc(N3CCCC3)n2)cc1`?
EC50 (Protein RecA): 0.946 µM (active); AC50 [1]: 3.2 µM (active)

With `COc1ccccc1N1CC(C(=O)Nc2nnc(SCC(=O)N3CCCC3)s2)CC1=O` (stereo unspecified) as the compound, how does the EC50 (Streptococcus) read?
Its EC50 is > 150 µM (not active).

And the EC50 [3]?
Its EC50 is > 150 µM (not active).

What about the EC50 (Streptokinase A) of the same compound?
The EC50 was > 150 µM (not active).

For `C[C@@H]1CN([C@@H](C)CO)C(=O)c2cc(NC(=O)Nc3ccccc3)ccc2O[C@H]1CN(C)C(=O)Nc1cccc2ccccc12`, which IC50 (H9c2) is on record?
The IC50 was 13.9 µM (active).

For `CCOCCn1ccc2c(OCC(=O)Nc3cc(OC)ccc3OC)cccc2c1=O`, which IC50 (H9c2) is on record?
The IC50 was > 79 µM (inactive).

Which results are given for `COC(=O)Cc1c(C)[nH]n(-c2cc(Cl)cc(Cl)c2)c1=O`?
EC50 (Protein RecA): 16.9 µM (active); AC50 [1]: 11 µM (active)

With `COC(=O)[C@@H](NC(=O)NC1CCCc2ccccc21)C(C)C` (stereo partly specified) as the compound, how does the EC50 [2] read?
The EC50 was > 260 µM (inactive).

For `COc1ccccc1C1C(C#N)=C(N)Oc2c1c(-c1ccccc1)nn2-c1ccccc1` (stereo unspecified), which EC50 (Protein RecA) is on record?
The EC50 was 4.49 µM (active).

And the AC50 [1]?
The AC50 was 9.85 µM (active).

With `c1ccc(-c2nc(C3CCCCC3)c3ccccc3n2)cc1` as the compound, how does the EC50 (Streptococcus) read?
Its EC50 is 25.2 µM (active).

And the EC50 [3]?
Its EC50 is 3.71 µM (active).

What about the EC50 (Streptokinase A) of the same compound?
The EC50 was 21.6 µM (active).

What does the source list for `COc1ccccc1-c1[nH]nc2c1[C@H](C)CC[C@H]2C(C)C`?
EC50 (Streptococcus): > 150 µM (not active); EC50 [3]: 10.9 µM (active); EC50 (Streptokinase A): > 150 µM (not active)

With `Cc1ccc(/C=C2\SC(N3CCN(C(c4ccccc4)c4ccccc4)CC3)=NC2=O)o1` as the compound, how does the EC50 (Protein RecA) read?
Its EC50 is 49.1 µM (active).

And the AC50 [1]?
The AC50 was > 380 µM (inactive).
